Blank lines part the entries; values can stand above or below the molecule they belong to.
Tests used:
[1] = biological target: Rho-associated protein kinase 2 (Homo sapiens, UniProt O75116); assay: Selectivity interaction (Kinase panel (literature)) EUB0001199aCl ROCK2; conditions: at 1 µM
[2] = biological target: Serine/threonine-protein kinase VRK2 (Homo sapiens) (UniProt Q86Y07); assay: Selectivity interaction (KinomeScan (DiscoverX)) EUB0001079a VRK2; conditions: at 1 µM
[3] = biological target: T1, Calcium/calmodulin-dependent protein kinase type IV (Homo sapiens) (UniProt Q16566); assay: Selectivity interaction (Kinase panel (DSF assay)) EUB0001558a CAMK4
T1 sequence (whole entry): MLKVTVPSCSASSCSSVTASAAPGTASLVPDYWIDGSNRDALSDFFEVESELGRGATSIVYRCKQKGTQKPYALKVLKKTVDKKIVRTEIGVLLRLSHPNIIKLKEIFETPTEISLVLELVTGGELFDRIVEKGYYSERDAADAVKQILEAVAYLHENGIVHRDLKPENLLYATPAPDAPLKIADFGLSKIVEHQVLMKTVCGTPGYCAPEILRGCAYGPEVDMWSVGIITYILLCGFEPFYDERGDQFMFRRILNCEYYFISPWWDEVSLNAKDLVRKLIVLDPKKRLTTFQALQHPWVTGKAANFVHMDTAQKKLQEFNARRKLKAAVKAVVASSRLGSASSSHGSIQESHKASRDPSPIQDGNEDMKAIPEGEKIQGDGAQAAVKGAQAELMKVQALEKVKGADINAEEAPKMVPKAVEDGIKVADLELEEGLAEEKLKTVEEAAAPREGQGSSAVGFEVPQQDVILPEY

[4] = biological target: T2, Mitogen-activated protein kinase kinase kinase 19 (Homo sapiens) (UniProt Q56UN5); assay: Selectivity interaction (KinomeScan (DiscoverX)) EUB0000595a MAP3K19; conditions: at 10 µM
T2 sequence (whole entry): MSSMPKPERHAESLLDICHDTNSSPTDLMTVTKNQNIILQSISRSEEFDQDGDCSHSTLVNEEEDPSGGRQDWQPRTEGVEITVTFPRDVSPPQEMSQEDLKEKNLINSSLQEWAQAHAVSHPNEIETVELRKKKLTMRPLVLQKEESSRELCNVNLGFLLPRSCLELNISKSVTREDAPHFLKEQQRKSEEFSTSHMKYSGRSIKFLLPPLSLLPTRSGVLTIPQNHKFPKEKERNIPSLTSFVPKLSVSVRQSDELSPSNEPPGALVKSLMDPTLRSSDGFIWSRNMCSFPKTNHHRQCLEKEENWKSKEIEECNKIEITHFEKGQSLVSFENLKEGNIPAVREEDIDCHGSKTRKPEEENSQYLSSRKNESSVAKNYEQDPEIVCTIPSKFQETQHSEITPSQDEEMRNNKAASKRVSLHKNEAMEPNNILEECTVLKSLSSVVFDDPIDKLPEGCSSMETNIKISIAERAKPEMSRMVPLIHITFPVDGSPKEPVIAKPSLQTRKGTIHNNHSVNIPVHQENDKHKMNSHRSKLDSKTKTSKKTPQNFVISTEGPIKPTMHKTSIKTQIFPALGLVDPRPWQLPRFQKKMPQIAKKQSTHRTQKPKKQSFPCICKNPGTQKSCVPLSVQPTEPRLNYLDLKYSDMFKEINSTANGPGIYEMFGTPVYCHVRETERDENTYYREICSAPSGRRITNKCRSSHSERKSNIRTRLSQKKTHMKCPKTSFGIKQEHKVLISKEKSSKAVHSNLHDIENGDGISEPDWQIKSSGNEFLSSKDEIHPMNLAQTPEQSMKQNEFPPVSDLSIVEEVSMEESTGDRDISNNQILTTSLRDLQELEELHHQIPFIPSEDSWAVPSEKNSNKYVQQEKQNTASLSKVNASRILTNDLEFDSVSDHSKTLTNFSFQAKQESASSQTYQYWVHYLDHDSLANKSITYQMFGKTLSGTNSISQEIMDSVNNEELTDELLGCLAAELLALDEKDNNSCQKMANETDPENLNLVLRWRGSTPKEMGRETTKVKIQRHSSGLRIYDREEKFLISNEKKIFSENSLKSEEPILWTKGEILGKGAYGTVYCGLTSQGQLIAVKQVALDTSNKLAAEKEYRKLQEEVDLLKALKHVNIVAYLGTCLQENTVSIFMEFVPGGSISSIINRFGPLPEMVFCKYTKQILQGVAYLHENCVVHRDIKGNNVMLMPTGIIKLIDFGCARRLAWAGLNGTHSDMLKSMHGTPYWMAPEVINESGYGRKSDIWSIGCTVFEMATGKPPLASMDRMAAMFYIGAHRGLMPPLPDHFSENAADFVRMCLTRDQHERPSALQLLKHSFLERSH

[5] = biological target: MAP kinase-activated protein kinase 3 (Homo sapiens) (UniProt Q16644); assay: Selectivity interaction (Kinase panel (Invitrogen)) EUB0000639a MAPKAPK3; conditions: at 200 nM
Sequence of MAP kinase-activated protein kinase 3 (Homo sapiens) (Q16644 whole entry, looked up): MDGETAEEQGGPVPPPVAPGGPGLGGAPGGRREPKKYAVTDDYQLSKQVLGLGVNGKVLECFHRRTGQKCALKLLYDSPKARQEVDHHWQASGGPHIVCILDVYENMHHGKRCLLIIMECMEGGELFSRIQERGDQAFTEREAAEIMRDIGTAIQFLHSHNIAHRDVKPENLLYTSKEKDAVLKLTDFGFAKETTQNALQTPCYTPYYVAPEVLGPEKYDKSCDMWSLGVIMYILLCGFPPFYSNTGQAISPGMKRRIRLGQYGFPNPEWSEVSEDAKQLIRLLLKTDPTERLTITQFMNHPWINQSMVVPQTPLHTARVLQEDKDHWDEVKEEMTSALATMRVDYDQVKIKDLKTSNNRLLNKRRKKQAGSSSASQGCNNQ

[6] = biological target: Cyclin-dependent kinase 17 (Homo sapiens) (UniProt Q00537); assay: Selectivity interaction (ActivX KiNativ screen (kinase selectivity in THP-1 cell lysates)) EUB0000639a CDK17; format: subcellular; conditions: lysate, at 5 µM
Sequence of Cyclin-dependent kinase 17 (Homo sapiens) (Q00537 whole entry, looked up, the tested form may be a part): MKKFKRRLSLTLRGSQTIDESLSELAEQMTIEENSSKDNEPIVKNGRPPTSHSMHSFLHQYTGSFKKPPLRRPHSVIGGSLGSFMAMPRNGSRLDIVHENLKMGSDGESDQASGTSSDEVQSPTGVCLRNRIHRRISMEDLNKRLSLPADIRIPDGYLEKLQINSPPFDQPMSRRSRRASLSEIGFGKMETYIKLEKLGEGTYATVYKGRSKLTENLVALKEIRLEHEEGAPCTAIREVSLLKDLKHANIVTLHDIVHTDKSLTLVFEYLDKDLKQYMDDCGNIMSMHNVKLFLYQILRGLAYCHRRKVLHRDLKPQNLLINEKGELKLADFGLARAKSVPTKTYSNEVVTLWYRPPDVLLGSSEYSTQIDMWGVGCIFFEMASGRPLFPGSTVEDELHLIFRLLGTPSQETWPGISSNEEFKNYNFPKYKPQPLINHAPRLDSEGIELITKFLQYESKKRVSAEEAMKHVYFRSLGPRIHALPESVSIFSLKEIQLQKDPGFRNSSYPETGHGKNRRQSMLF

[7] = biological target: LIM domain kinase 2 (Homo sapiens) (UniProt P53671); assay: Selectivity interaction (KinomeScan (DiscoverX)) EUB0000229b LIMK2; conditions: at 10 µM
[8] = biological target: TGF-beta receptor type-2 (Homo sapiens) (UniProt P37173); assay: Selectivity interaction (KinomeScan (DiscoverX)) EUB0000229b TGFBR2; conditions: at 10 µM
Sequence of TGF-beta receptor type-2 (Homo sapiens) (P37173 whole entry): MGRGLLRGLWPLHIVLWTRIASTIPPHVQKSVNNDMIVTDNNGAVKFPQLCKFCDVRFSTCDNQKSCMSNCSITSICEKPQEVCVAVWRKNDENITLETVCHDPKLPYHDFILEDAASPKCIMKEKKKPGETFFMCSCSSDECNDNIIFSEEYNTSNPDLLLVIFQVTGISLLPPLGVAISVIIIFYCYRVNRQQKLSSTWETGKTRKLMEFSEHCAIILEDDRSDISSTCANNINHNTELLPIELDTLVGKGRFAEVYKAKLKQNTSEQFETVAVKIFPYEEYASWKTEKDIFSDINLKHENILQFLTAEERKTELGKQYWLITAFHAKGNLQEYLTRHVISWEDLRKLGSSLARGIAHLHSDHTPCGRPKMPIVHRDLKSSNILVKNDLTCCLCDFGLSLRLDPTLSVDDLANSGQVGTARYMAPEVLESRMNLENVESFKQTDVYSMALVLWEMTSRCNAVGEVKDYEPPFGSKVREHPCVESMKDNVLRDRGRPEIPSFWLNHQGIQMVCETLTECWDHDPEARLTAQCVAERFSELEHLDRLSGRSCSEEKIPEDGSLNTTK

[9] = biological target: Dual specificity protein kinase CLK1 (Homo sapiens, UniProt P49759); assay: Selectivity interaction (ProQinase) EUB0000171b CLK1
Sequence of Dual specificity protein kinase CLK1 (P49759 whole entry, looked up): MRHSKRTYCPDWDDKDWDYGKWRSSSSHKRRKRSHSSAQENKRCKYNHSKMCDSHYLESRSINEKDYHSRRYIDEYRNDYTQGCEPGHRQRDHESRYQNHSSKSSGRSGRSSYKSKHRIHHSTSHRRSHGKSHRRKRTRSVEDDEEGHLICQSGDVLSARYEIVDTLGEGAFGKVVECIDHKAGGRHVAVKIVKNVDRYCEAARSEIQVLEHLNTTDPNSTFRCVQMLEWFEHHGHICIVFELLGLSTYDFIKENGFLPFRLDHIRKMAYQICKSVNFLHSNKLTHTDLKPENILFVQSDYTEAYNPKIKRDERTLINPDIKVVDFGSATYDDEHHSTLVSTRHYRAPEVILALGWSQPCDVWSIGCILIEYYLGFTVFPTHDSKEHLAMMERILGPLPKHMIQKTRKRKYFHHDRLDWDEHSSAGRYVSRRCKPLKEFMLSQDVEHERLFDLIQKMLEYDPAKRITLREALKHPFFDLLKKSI

[10] = biological target: Tyrosine-protein kinase JAK2 (Homo sapiens, UniProt O60674); assay: Selectivity interaction (KinomeScan (DiscoverX)) EUB0001049a JAK2; conditions: at 1 µM
Sequence of Tyrosine-protein kinase JAK2 (O60674 whole entry): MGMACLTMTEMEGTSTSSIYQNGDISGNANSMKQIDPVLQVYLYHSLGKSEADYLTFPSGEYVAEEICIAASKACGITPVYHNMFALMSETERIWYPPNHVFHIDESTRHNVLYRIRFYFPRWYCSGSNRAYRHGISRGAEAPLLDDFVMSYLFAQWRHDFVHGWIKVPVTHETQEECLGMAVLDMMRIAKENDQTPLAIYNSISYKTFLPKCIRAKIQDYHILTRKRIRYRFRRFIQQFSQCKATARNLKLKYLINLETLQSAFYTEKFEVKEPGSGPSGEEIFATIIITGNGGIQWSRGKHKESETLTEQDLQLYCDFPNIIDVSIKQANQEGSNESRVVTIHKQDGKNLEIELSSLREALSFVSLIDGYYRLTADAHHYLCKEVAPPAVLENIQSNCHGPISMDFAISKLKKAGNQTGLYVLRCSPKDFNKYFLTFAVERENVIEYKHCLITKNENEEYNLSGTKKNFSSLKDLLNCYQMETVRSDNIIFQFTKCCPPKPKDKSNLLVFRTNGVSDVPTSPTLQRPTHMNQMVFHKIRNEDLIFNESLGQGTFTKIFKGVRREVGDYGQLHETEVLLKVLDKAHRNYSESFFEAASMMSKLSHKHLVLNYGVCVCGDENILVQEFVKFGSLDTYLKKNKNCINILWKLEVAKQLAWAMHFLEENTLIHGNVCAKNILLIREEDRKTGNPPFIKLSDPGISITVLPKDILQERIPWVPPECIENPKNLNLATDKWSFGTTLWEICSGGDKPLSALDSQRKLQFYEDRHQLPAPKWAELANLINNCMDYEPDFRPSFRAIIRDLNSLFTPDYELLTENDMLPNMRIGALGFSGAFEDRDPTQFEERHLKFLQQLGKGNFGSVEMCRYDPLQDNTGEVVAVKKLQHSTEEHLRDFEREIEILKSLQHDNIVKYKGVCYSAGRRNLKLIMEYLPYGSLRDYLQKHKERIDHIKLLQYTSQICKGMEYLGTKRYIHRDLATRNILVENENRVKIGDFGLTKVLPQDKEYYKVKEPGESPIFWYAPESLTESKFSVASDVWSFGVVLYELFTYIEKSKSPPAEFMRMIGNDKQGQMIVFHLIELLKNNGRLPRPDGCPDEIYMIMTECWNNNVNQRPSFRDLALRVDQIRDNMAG

[11] = biological target: T3, 3-phosphoinositide-dependent protein kinase 1 (Homo sapiens) (UniProt O15530); assay: Selectivity interaction (KinomeScan (DiscoverX)) EUB0000666a PDPK1; conditions: at 10 µM
T3 sequence (whole entry): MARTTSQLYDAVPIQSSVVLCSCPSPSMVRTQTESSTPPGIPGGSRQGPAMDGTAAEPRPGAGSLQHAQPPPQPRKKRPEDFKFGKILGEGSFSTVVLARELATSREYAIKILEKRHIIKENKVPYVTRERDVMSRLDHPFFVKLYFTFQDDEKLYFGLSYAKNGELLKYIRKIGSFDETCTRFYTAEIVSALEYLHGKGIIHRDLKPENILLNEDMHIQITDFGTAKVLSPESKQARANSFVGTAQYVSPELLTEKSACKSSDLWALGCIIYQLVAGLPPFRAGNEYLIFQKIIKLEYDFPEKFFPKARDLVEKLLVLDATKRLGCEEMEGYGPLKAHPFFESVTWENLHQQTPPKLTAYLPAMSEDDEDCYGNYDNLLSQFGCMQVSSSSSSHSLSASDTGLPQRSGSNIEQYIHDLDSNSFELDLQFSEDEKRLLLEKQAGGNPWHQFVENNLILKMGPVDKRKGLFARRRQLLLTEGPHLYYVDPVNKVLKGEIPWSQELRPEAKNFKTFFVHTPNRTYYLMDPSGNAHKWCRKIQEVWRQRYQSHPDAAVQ

Sequence of Rho-associated protein kinase 2 (O75116 whole entry, looked up): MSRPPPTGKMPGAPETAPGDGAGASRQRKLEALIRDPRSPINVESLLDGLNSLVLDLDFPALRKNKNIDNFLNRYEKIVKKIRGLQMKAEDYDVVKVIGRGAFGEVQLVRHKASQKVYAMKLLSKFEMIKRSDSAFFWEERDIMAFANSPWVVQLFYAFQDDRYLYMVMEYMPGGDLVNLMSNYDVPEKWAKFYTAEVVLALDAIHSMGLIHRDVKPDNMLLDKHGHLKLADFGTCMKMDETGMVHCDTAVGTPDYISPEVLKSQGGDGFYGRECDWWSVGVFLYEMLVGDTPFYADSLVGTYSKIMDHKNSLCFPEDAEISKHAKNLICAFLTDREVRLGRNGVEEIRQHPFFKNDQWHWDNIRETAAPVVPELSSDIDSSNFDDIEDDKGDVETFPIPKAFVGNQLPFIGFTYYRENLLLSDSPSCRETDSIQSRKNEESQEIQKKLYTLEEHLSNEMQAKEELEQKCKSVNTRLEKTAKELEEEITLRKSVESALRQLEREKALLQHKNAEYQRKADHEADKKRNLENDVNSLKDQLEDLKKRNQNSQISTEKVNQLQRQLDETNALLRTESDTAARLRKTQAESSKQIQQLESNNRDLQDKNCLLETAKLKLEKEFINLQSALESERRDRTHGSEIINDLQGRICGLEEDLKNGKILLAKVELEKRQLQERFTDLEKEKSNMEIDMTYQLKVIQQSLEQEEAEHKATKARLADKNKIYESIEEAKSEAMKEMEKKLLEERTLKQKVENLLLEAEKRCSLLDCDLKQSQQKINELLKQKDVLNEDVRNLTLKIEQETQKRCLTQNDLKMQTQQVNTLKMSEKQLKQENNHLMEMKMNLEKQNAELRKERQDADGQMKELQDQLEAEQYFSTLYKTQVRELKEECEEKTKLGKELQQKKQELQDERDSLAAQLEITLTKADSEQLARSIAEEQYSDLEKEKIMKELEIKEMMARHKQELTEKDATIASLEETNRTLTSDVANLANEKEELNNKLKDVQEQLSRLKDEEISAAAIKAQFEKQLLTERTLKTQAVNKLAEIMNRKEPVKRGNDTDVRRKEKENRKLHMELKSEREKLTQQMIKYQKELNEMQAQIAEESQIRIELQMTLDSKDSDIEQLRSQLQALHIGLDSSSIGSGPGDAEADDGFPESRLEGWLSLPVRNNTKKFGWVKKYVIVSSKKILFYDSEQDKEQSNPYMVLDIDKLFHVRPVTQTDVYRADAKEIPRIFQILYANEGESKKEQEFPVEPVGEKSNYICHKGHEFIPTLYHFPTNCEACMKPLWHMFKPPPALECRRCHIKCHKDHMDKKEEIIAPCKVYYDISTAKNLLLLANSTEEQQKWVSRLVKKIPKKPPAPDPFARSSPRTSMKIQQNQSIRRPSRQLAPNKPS
Sequence of Serine/threonine-protein kinase VRK2 (Homo sapiens) (Q86Y07 whole entry): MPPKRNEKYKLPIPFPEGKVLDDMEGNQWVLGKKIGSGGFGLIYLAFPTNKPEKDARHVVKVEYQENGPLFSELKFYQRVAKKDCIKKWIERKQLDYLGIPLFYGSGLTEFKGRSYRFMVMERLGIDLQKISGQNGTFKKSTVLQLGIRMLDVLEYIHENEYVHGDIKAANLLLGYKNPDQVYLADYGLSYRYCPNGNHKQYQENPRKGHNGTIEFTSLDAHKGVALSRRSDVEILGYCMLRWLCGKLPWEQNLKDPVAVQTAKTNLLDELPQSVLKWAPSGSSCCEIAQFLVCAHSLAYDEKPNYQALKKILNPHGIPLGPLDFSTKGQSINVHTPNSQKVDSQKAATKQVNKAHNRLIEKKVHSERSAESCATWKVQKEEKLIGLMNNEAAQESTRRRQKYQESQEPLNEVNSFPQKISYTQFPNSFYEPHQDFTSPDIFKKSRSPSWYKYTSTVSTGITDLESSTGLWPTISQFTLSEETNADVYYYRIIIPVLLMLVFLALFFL

% of inhibition [1]: 6%
Compound: CN1Cc2nccc(-c3cn(C)nc3-c3ccc(F)cc3)c2C1=O

Compound: Nc1cnc(N2CCc3cc(S(=O)(=O)Nc4c(F)cc(Cl)cc4F)cc(N4CCCC4=O)c32)nc1 [TP-020n]
% of control [2]: 100%

Compound: CC(C)(O)[C@H](F)CN1Cc2cc(NC(=O)c3cnn4cccnc34)c(N3CCOCC3)cc2C1=O
dTM [3]: 1 K

Compound: COCC(=O)NC/C=C/c1ccc2ncnc(Nc3ccc(Oc4ccc(C)nc4)c(C)c3)c2c1 [CP-724714]
% of control [4]: 100%

% of inhibition [5]: 3.83%
% of inhibition [6]: 6.5%
Compound: CC[C@@H]1[C@H](F)C(=O)N[C@@H]1COc1nccc2cc(C(N)=O)c(OC)cc12 [ZIMLOVISERTIB]

Compound: COc1cc(N(C)c2ccnc3ccc(C(F)(F)F)cc23)cc(OC)c1OC
% binding [7]: 93%
% binding [8]: 94%

% of control ([9]; at 1 µM): 67%
% of control ([9]; at 5 µM): 37%
Compound: C=CC(=O)Nc1cccc(C(=O)Nc2ccc(Nc3cc(-c4[nH]c(SC)nc4C)ccn3)cc2)c1

Compound: COc1cc(Nc2nc(C)cc(-c3cnn4nc(OC)ccc34)n2)cc(C(F)(F)F)c1
% of control [10]: 85%

Compound: O=C(NOC[C@H](O)CO)c1ccc(F)c(F)c1Nc1ccc(I)cc1F
% of control [11]: 71%

Reference: ChEMBL document CHEMBL5465560, “Selectivity Literature for EUbOPEN Chemogenomic Library” (2024)
